Assay results published in patent US10519147B2 (Merck Sharp & Dohme Corp., priority 2015, dated 2019).

What was measured:
human Nav1.5 = target: T1, human Nav1.5 (Homo sapiens, UniProt Q14524); assay: IonWorks Quattro automated patch-clamp, Nav1.5 (selectivity against Nav1.7); format: cell-based; details: IonWorks measurement, HEK 293 cells, inactivated state block
T1 construct: expressed in transfected cells; host or cells: HEK 293
Procedure: Compounds were tested on human Nav1.7 and Nav1.5 channels stably expressed in HEK 293 cells. […] Cells were sealed on a planar substrate using the Population Patch […] (PPC) technology. Electrical access was obtained using both nystatin and amphotericin. A double-pulse protocol was used for the determination of IC50 values for inactivated state block. Nav1.7 and Nav1.5 expressing cells were voltage clamped at −100 mV and −110 mV, respectively. A depolarizing prepulse to −10 mV (Nav1.7) or −30 mV (Nav1.5) for 1000 ms followed by a 10 ms repolarization to −100 mV (Nav1.7) or −110 mV (Nav1.5) was given to generate fractional channel inactivation of 50%, followed by a 10 ms test pulse to −10 mV (Nav1.7) or −30 mV (Nav1.5) to measure peak current in control conditions and after compound addition. The following recording solutions were used (mM). External: 150 NaCl, 2 CaCl2, 5 KCl, 1 Mg Cl2, 10 HEPES, 12 Dextrose; internal: 120 CsF, 30 CsCl, 10 EGTA, 5 HEPES, 5 NaF, 2 MgCl2.
For all electrophysiology experiments, offline analysis was used to determine percent inhibition as a function of drug concentration. IC50 values were determined by fitting to the Hill equation.

human Nav1.7 = target: T2, human Nav1.7 (Homo sapiens, UniProt Q15858); assay: IonWorks Quattro automated patch-clamp, inactivated state block of Nav1.7; format: cell-based; details: channels stably expressed in HEK 293 cells; double-pulse protocol, inactivated state block; read-out: potency for the Nav 1.7 sodium ion channel (IC50, as measured by IonWorks)
T2 construct: expressed in transfected cells; host or cells: HEK 293
T2 sequence (Q15858 whole entry): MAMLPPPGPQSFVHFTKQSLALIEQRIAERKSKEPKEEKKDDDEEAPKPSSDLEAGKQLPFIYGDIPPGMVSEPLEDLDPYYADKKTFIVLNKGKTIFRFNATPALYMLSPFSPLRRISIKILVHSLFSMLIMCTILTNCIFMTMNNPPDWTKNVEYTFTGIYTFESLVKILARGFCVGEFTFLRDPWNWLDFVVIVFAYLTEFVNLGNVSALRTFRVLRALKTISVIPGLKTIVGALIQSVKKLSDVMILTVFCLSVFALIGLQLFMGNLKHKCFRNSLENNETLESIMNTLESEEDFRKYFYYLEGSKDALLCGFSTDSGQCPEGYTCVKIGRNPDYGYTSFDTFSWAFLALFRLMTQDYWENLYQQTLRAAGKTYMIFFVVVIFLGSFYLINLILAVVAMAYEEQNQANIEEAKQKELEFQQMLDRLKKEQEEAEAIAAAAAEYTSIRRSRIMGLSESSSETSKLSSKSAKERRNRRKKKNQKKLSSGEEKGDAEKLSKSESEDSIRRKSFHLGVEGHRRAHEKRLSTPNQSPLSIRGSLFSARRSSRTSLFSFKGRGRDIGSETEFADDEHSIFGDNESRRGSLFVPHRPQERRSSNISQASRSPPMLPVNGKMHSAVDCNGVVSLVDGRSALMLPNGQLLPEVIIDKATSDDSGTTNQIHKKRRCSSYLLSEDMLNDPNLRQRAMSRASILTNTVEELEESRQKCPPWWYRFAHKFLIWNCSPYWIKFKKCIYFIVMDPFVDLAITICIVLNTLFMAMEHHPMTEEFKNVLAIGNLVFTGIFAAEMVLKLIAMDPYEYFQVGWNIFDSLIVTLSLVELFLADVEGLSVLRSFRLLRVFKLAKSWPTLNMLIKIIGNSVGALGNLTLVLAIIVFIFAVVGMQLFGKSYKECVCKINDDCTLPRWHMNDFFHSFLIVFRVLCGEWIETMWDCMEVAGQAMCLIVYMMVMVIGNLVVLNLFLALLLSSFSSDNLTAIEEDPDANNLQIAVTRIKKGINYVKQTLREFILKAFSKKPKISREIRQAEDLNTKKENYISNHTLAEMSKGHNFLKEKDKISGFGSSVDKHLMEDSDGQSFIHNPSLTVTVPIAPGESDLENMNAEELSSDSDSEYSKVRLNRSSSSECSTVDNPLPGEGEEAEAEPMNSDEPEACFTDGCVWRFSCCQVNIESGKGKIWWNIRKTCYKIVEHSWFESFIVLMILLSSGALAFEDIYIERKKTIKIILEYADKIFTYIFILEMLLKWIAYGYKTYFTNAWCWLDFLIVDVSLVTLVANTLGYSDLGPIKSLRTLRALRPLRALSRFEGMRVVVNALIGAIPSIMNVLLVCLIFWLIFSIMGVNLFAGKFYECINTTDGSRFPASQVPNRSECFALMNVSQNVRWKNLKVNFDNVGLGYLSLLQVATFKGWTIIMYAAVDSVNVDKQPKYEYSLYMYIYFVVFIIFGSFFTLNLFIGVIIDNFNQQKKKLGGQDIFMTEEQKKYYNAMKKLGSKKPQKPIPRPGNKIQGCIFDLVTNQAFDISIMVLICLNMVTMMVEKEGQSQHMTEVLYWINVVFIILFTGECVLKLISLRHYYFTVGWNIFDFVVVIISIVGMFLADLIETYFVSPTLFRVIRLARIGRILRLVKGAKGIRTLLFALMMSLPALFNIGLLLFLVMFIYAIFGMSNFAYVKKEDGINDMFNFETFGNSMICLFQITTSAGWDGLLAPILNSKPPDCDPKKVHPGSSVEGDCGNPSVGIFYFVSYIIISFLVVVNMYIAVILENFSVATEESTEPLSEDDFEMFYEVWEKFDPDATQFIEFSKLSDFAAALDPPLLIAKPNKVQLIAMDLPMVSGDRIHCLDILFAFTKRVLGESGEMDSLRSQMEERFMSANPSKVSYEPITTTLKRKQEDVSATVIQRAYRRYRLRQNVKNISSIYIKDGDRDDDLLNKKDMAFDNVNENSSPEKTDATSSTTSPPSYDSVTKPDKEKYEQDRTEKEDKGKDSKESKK
How it was run: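 HEK293 stable lines, IonWorks PPC patch clamp (nystatin/amphotericin access); double-pulse protocol giving ~50% inactivation: holding −100 mV (Nav1.7) or −110 mV (Nav1.5), 1000 ms prepulse to −10 or −30 mV, 10 ms repolarization, 10 ms test pulse. Peak current inhibition versus concentration fitted to Hill equation for IC50.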

T1 sequence (Q14524 whole entry): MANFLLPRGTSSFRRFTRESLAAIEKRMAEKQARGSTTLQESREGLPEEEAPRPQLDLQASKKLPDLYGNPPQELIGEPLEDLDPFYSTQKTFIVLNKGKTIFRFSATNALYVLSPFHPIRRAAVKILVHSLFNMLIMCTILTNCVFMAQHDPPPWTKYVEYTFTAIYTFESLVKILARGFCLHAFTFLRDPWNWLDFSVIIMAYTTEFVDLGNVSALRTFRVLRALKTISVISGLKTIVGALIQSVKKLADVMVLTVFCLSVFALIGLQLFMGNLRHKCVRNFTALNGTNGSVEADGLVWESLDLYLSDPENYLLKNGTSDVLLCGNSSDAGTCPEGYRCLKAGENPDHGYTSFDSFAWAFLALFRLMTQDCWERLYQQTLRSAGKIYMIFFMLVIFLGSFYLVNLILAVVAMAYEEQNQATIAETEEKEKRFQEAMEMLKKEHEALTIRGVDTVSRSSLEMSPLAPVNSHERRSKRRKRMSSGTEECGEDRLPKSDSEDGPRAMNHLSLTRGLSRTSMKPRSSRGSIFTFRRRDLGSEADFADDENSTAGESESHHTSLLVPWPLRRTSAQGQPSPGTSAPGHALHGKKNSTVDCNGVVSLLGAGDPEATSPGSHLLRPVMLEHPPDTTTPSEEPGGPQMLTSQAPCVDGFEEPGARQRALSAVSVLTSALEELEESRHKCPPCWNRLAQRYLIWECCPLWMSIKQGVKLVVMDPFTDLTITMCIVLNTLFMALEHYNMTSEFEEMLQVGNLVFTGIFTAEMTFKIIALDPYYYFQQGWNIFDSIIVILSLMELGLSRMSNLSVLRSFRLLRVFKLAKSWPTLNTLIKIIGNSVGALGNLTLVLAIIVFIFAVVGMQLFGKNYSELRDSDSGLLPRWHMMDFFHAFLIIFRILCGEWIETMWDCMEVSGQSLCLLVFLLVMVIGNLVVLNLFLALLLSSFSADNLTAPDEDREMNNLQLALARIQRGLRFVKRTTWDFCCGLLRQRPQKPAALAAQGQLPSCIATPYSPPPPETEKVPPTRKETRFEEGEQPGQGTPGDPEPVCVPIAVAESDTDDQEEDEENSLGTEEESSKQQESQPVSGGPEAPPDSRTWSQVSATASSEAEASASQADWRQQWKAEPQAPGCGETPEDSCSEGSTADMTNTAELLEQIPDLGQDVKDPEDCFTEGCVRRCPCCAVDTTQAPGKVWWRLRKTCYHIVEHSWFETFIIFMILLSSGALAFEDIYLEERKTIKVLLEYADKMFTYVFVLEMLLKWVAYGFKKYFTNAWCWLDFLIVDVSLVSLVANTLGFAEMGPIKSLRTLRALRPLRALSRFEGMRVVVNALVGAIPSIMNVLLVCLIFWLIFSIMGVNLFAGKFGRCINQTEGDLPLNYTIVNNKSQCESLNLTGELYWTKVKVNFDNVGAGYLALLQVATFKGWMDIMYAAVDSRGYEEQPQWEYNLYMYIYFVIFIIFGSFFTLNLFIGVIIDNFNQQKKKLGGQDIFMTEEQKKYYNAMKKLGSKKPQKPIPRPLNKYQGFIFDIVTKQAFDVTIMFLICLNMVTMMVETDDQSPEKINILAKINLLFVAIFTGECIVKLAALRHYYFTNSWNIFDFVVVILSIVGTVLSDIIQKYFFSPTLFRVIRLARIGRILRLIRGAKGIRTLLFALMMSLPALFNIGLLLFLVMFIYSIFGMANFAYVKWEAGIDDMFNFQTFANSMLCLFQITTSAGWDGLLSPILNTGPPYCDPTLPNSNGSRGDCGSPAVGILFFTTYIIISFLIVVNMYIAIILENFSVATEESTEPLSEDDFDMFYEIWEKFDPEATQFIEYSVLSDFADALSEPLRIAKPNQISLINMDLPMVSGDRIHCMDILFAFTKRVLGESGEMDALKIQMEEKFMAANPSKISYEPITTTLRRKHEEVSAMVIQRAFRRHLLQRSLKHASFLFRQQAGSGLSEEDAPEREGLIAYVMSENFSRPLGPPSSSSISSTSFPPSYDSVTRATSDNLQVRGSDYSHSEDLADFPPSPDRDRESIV

Row | Structure (SMILES) | IC50 (human Nav1.7) [nM] | ratio of Nav 1.7 potency:Nav 1.5 potency (human Nav1.5)
1 | O=S(=O)(Nc1ncns1)c1cc(Br)c(NCCCCNC[C@H]2CCN2)cc1F [Ex 16-77, 4-[(4-{[(2R)-azetidin-2-ylmethyl]amino}butyl)amino]-5-bromo-2-fluoro-N-1,2,4-thiadiazol-5-ylbenzenesulfonamide] | 24 | > 1380
2 | C[C@H](N)CNCCCCNc1cc(F)c(S(=O)(=O)Nc2ncns2)cc1Br [Ex 16-80, 4-[4-[[(2S)-2-aminopropyl]amino]butylamino]-5-bromo-2-fluoro-N-(1,2,4-thiadiazol-5-yl)benzenesulfonamide] | 3.1 | > 10600
3 | CC(C)C[C@@H](CNCCCCNc1cc(F)c(S(=O)(=O)Nc2ncc(F)s2)cc1Cl)[C@@H](C)N [Ex 16-84, 4-((4-(((S)-2-((R)-1-aminoethyl)-4-methylpentyl)-amino)butyl)amino)-5-chloro-2-fluoro-N-(5-fluorothiazol-2-yl)benzenesulfonamide] | 6.1 | > 5400
4 | N[C@@H]1CCC[C@H]1NCCCCNc1cc(F)c(S(=O)(=O)Nc2ncns2)cc1F [Ex 16-86, 4-[4-[[(1R,2R)-2-aminocyclopentyl]amino]butylamino]-2,5-difluoro-N-(1,2,4-thiadiazol-5-yl)benzenesulfonamide] | 39 | > 850
5 | NCCNCCCCNc1cc(F)c(S(=O)(=O)Nc2ncns2)cc1Br [Ex 16-88, 4-[4-(2-aminoethylamino)butylamino]-5-bromo-2-fluoro-N-(1,2,4-thiadiazol-5-yl)benzenesulfonamide] | 9.6 | > 3400
6 | N[C@@H]1CCC[C@H]1NCCCCNc1cc(F)c(S(=O)(=O)Nc2ncns2)cc1Br [Ex 16-94, 4-[4-[[(1R,2R)-2-aminocyclopentyl]amino]butylamino]-5-bromo-2-fluoro-N-(1,2,4-thiadiazol-5-yl)benzenesulfonamide] | 7.3 | 3150
7 | N[C@H]1CC[C@H](NCCCCNc2cc(F)c(S(=O)(=O)Nc3ncns3)cc2Br)C1 [Ex 16-95, 4-[4-[[(1S,3S)-3-aminocyclopentyl]amino]butylamino]-5-bromo-2-fluoro-N-(1,2,4-thiadiazol-5-yl)benzenesulfonamide] | 35 | > 940
8 | NCC1(NCCCCNc2cc(F)c(S(=O)(=O)Nc3ncns3)cc2Br)CC1 [Ex 16-98, 4-[4-[[1-(aminomethyl)cyclopropyl]amino]butylamino]-5-bromo-2-fluoro-N-(1,2,4-thiadiazol-5-yl) benzenesulfonamide] | 8.6 | > 3840

Continued by falling IC50 (human Nav1.7), values first:

Row | IC50 (human Nav1.7) [nM] | Structure (SMILES) | ratio of Nav 1.7 potency:Nav 1.5 potency (human Nav1.5)
9 | 41 | O=S(=O)(Nc1nccs1)c1cc(Cl)c(NCCCCNC[C@H]2CCN2)cc1F [Ex 16-75, 4-[(4-{[(2R)-azetidin-2-ylmethyl]amino}butyl)amino]-5-chloro-2-fluoro-N-1,3-thiazol-2-ylbenzenesulfonamide] | > 805
10 | 41 | N[C@@H]1CCC[C@@H]1NCCCCNc1cc(F)c(S(=O)(=O)Nc2ncns2)cc1Br [Ex 16-93, 4-[4-[[(1S,2R)-2-aminocyclopentyl]amino]butylamino]-5-bromo-2-fluoro-N-(1,2,4-thiadiazol-5-yl)benzenesulfonamide] | > 800
11 | 17 | O=S(=O)(Nc1ncns1)c1cc(Br)c(NCCCCNC[C@@H]2CCN2)cc1F [Ex 16-76, 4-[(4-{[(2S)-azetidin-2-ylmethyl]amino}butyl)amino]-5-bromo-2-fluoro-N-1,2,4-thiadiazol-5-ylbenzenesulfonamide] | > 1940
12 | 5.9 | C[C@@H](N)CNCCCCNc1cc(F)c(S(=O)(=O)Nc2ncns2)cc1Br [Ex 16-99, 4-[4-[[(2R)-2-aminopropyl]amino]butylamino]-5-bromo-2-fluoro-N-(1,2,4-thiadiazol-5-yl)benzenesulfonamide] | 3900
13 | 5.4 | C[C@H](CCN)NCCCCNc1cc(F)c(S(=O)(=O)Nc2ncns2)cc1Br [Ex 16-79, 4-[4-[[(1R)-3-amino-1-methyl-propyl]amino]butylamino]-5-bromo-2-fluoro-N-(1,2,4-thiadiazol-5-yl)benzenesulfonamide] | 4260
14 | 4.9 | NC1CCC1NCCCCNc1cc(F)c(S(=O)(=O)Nc2ncns2)cc1Cl (centres unmarked) [Ex 16-81, 4-[4-[(2-aminocyclobutyl)amino]butylamino]-5-chloro-2-fluoro-N-(1,2,4-thiadiazol-5-yl) benzenesulfonamide] | > 6700
15 | 4.5 | CC(C)C[C@@H](CNCCCCNc1cc(F)c(S(=O)(=O)Nc2ncns2)cc1Cl)[C@@H](C)N [Ex 16-85, 4-((4-(((S)-2-((R)-1-aminoethyl)-4-methylpentyl)-amino)butyl)amino)-5-chloro-2-fluoro-N-(1,2,4-thiadiazol-5-yl) benzenesulfonamide] | > 7330
16 | 3.4 | CCNCCNCCCCNc1cc(F)c(S(=O)(=O)Nc2ncns2)cc1Br [Ex 16-92, 5-bromo-4-[4-[2-(ethylamino)ethylamino]butylamino]-2-fluoro-N-(1,2,4-thiadiazol-5-yl)benzenesulfonamide] | > 9700
